Each structure is given as a SMILES string. A value given as a limit tells only on which side of the number the result lay.

The target in the assay is T1, HCV RNA Polymerase, recombinant full-length NS5B, genotype 1b (Hepatitis C virus genotype 1b, UniProt Q9WMX2).
T1 construct: Recombinant full-length NS5B; made in house; host or cells: baculovirus (insect cells)
T1 sequence (Q9WMX2 2420-3010): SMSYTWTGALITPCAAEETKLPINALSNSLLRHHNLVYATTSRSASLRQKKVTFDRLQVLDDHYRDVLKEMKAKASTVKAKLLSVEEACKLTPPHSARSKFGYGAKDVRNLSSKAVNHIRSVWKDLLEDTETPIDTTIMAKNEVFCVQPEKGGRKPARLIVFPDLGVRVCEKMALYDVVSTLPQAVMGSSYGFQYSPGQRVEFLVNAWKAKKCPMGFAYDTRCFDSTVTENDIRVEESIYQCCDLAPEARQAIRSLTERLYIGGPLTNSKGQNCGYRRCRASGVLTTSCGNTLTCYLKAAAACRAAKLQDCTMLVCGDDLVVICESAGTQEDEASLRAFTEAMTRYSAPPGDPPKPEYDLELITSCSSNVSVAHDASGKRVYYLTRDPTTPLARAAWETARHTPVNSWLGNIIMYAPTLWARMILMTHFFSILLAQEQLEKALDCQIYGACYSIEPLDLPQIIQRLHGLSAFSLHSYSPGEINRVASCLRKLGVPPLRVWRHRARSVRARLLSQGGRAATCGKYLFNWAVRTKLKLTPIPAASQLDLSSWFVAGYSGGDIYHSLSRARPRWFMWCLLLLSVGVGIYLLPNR
Nature of the assay: In vitro HCV RNA-dependent RNA polymerase inhibition assay, genotype 1b full-length enzyme. It is filed as biochemical, HCV genotype 1b. The conditions noted are these: genotype 1b full-length NS5B, 4 nM enzyme. How it is done: In Vitro Detection of inhibitors of HCV RNA-Dependent RNA Polymerase Activity
Incorporation of [^33P]-GMP into RNA was followed by absorption of the biotin labelled RNA polymer by streptavidin containing SPA beads. A synthetic template consisting of biotinylated 13mer-oligoG hybridised to polyrC was used as a homopolymer substrate.
b) Genotype 1b Full-Length Enzyme
Reaction Conditions were 0.5 μM [^33P]-GTP (20 Ci/mMol), 1 mM Dithiothreitol, 20 mM MgCl2, 5 mM MnCl2, 20 mM Tris-HCl, pH7.5, 1.6 μg/mL polyC/0.256 μM biotinylated oligoG13, 10% glycerol, 0.01% NP-40, 0.2 u/μL RNasin and 50 mM NaCl.
HCV RNA Polymerase (Recombinant full-length NS5B (Lohmann et al, J. Virol. 71 (11), 1997, 8416. ‘Biochemical properties of hepatitis C virus NS5B RNA-dependent RNA polymerase and identification of amino acid sequence motifs essential for enzymatic activity’) expressed in baculovirus and purified to homogeneity) was added to 4 nM final concentration.
5× concentrated assay buffer mix was prepared using 1M MnCl2 (0.25 mL), glycerol (2.5 mL), 10% NP-40 (0.025 mL) and Water (7.225 mL), Total 10 mL.
2× concentrated enzyme buffer contained 1M-Tris-HCl, pH7.5 (0.4 mL), 5M NaCl (0.2 mL), 1M-MgCl2(0.4 mL), glycerol (1 mL), 10% NP-40 (10 μL), 1M DTT (20 μL) and water (7.97 mL), Total 10 mL.
Substrate Mix was prepared using 5x Concentrated assay Buffer mix (4 μL), [^33P]-GTP (10 μCi/μL, 0.02 μL), 25 μM GTP (0.4 μL), 40 μ/μL RNasin (0.1 μL), 20 μg/mL polyrC/biotinylated-oligorG (1.6 μL), and Water (3.94 μL), Total 10 μL.
Enzyme Mix was prepared by adding 1 mg/ml full-length NS5B polymerase (1.5 μL) to 2.81 mL 2×-concentrated enzyme buffer.
The Assay was set up using compound (1μL), Substrate Mix (10 μL), and Enzyme Mix (added last to start reaction) (10 μL), Total 21 μL.
The reaction was performed in a U-bottomed, white, 96-well plate. The reaction was mixed on a plate-shaker, after addition of the Enzyme, and incubated for 1 h at 22° C. After this time, the reaction was stopped by addition of 40 μL 1.875 mg/ml streptavidin SPA beads in 0.1 M EDTA. The beads were incubated with the reaction mixture for 1 h at 22° C. after which 120 μL 0.1 M EDTA in PBS was added. The plate was sealed, mixed centrifuged and incorporated radioactivity determined by counting in a Trilux (Wallac) or Topcount (Packard) Scintillation Counter.
After subtraction of background levels without enzyme, any reduction in the amount of radioactivity incorporated in the presence of a compound, compared to that in the absence, was taken as a measure of the level of inhibition. Ten concentrations of compounds were tested in three- or fivefold dilutions. From the counts, percentage of inhibition at highest concentration tested or IC50s for the compounds were calculated using GraFit 3, GraFit 4 or GraFit 5 (Erithacus Software Ltd.) software packages or a data evaluation macro for Excel based on XLFit software (IDBS).
On to `COC[C@H]1C[C@@](CC(C)C)(C(=O)O)N(C(=O)c2ccc(C(C)(C)C)c(OC)c2)[C@H]1c1nccs1` (racemic) [Compound A, rel-(2S,4S,5R)-2-isobutyl-1-(3-methoxy-4-tert-butylbenzoyl)-4-methoxymethyl-5-(1,3-thiazol-2-yl)pyrrolidine-2-carboxylic acid, reference compound], for which the IC50 was over 500 nM.

For `COC[C@H]1C[C@@](CC(C)C)(C(=O)O)N(C(=O)c2ccc(C(C)(C)C)c(OC)c2)[C@H]1c1ncc(C)s1` (racemic) [Compound C, rel-(2S,4S,5R)-2-isobutyl-1-(3-methoxy-4-tert-butylbenzoyl)-4-methoxymethyl-5-(5-methyl-1,3-thiazol-2-yl)pyrrolidine-2-carboxylic acid, reference compound], the IC50 is over 500 nM. With `COC[C@H]1C[C@@](Cc2ccccc2)(C(=O)O)N(C(=O)c2ccc(C(C)(C)C)c(OC)c2)[C@H]1c1nccs1` (racemic) [Compound E, rel-(2R,4S,5R)-2-benzyl-1-(3-methoxy-4-tert-butylbenzoyl)-4-methoxymethyl-5-(1,3-thiazol-2-yl)-pyrrolidine-2-carboxylic acid, reference compound] the figure was 200 to 500 nM; with `COC[C@H]1C[C@@](Cc2cscn2)(C(=O)O)N(C(=O)c2ccc(C(C)(C)C)c(OC)c2)[C@H]1c1ncc(C)s1` (racemic) [Example 1, rel-(2R,4S,5R)-1-(3-Methoxy-4-tert-butylbenzoyl)-4-(methoxymethyl)-5-(5-methyl-1,3-thiazol-2-yl)-2-(1,3-thiazol-4-ylmethyl)pyrrolidine-2-carboxylic acid], under 200 nM; with `COC[C@H]1C[C@@](Cc2cscn2)(C(=O)O)N(C(=O)c2ccc(C(C)(C)C)c(OC)c2)[C@H]1c1nccs1` (racemic) [Example 3, rel-(2R,4S,5R)-1-(3-Methoxy-4-tert-butylbenzoyl)-4-(methoxymethyl)-5-(1,3-thiazol-2-yl)-2-(1,3-thiazol-4-ylmethyl)pyrrolidine-2-carboxylic acid], under 200 nM. The result for `COC[C@H]1C[C@@](Cc2ccsn2)(C(=O)O)N(C(=O)c2ccc(C(C)(C)C)c(OC)c2)[C@H]1c1nccs1` (racemic) [Example 4, rel-(2R,4S,5R)-1-(3-Methoxy-4-tert-butylbenzoyl)-4-(methoxymethyl)-5-(1,3-thiazol-2-yl)-2-(1,2-thiazol-3-ylmethyl)pyrrolidine-2-carboxylic acid] reads under 200 nM. With `COC[C@H]1C[C@@](Cn2cccn2)(C(=O)O)N(C(=O)c2ccc(C(C)(C)C)c(OC)c2)[C@H]1c1nccs1` (racemic) [Example 6, rel-(2R,4S,5R)-1-(3-Methoxy-4-tert-butylbenzoyl)-4-(methoxymethyl)-2-(1H-pyrazol-1-ylmethyl)-5-(1,3-thiazol-2-yl)pyrrolidine-2-carboxylic acid] the figure was under 200 nM; with `COC[C@H]1C[C@@](Cc2nccs2)(C(=O)O)N(C(=O)c2ccc(C(C)(C)C)c(OC)c2)[C@H]1c1ncc(C)s1` (racemic) [Example 8, rel-(2R,4S,5R)-1-(3-Methoxy-4-tert-butylbenzoyl)-4-(methoxymethyl)-5-(5-methyl-1,3-thiazol-2-yl)-2-(1,3-thiazol-2-ylmethyl)pyrrolidine-2-carboxylic acid], under 200 nM. In the case of `COC[C@H]1C[C@@](Cc2ccsn2)(C(=O)O)N(C(=O)c2ccc(C(C)(C)C)c(OC)c2)[C@H]1c1ncc(C)s1` (racemic) [Example 9, rel-(2R,4S,5R)-1-(3-Methoxy-4-tert-butylbenzoyl)-4-(methoxymethyl)-5-(5-methyl-1,3-thiazol-2-yl)-2-(1,2-thiazol-3-ylmethyl)pyrrolidine-2-carboxylic acid], the IC50 was under 200 nM. With `COC[C@H]1C[C@@](Cn2cccn2)(C(=O)O)N(C(=O)c2ccc(C(C)(C)C)c(OC)c2)[C@H]1c1ncc(C)s1` (racemic) [Example 10, rel-(2R,4S,5R)-1-(3-Methoxy-4-tert-butylbenzoyl)-4-(methoxymethyl)-5-(5-methyl-1,3-thiazol-2-yl)-2-(1H-pyrazol-1-ylmethyl)pyrrolidine-2-carboxylic acid] the figure was under 200 nM; with `COC[C@H]1C[C@@](Cn2cccn2)(C(=O)O)N(C(=O)c2ccc(C(C)(C)C)c(OC)c2)[C@H]1c1nccs1` (single isomer, unassigned) [Example 7], under 200 nM; with `COCC1CC(CC(C)C)(C(=O)O)N(C(=O)c2ccc(C(C)(C)C)c(OC)c2)C1c1ncc(C)s1` (single isomer, unassigned; enantiomer a) [Compound D, reference compound], 200 to 500 nM. `COC[C@H]1C[C@@](Cc2cscn2)(C(=O)O)N(C(=O)c2ccc(C(C)(C)C)c(OC)c2)[C@H]1c1ncc(C)s1` (single isomer, unassigned; enantiomer a) [Example 2]: the 50% inhibitory concentration (IC50) is under 200 nM. Regarding `COC[C@H]1C[C@@](Cc2ccsn2)(C(=O)O)N(C(=O)c2ccc(C(C)(C)C)c(OC)c2)[C@H]1c1nccs1` (single isomer, unassigned; enantiomer a) [Example 5], the IC50 was under 200 nM. With `COC[C@H]1C[C@@](Cn2cccn2)(C(=O)O)N(C(=O)c2ccc(C(C)(C)C)c(OC)c2)[C@H]1c1ncc(C)s1` (single isomer, unassigned; enantiomer a) [Example 11] the figure was under 200 nM; with `COC[C@H]1C[C@@](Cc2cscn2)(C(=O)O)N(C(=O)c2ccc(C(C)(C)C)c(OC)c2)[C@H]1c1nccs1` (single isomer, unassigned; enantiomer a) [Example 12], under 200 nM; with `COC[C@H]1C[C@@](CC(C)C)(C(=O)O)N(C(=O)c2ccc(C(C)(C)C)c(OC)c2)[C@H]1c1nccs1` [Compound B, (2S,4S,5R)-2-isobutyl-1-(3-methoxy-4-tert-butylbenzoyl)-4-methoxymethyl-5-(1,3-thiazol-2-yl)pyrrolidine-2-carboxylic acid, reference compound], 200 to 500 nM.

As usually defined, the IC50 is the concentration that gives 50% inhibition.

The record behind these values is US20070270475A1, “4-Methoxy-Pyrrolidine-2-Carboxylic Acid Compounds and Derivatives Thereof as Hepatitis C Virus Inhibitors” (priority 2004, published 2007).
